{"source": "patent US7161064B2", "about": "“Method for producing stably transformed duckweed using microprojectile bombardment” (North Carolina State University, priority 1997, dated 2007)", "key": {"[1]": {"tested_on": "L. minor callus cultures, strain 8744 and strain 8627", "test": "Frond regeneration from L. minor callus cultures", "assay_type": "cell-based, Lemna minor", "details": "8 weeks", "experimental": "The effect of medium composition on frond regeneration from L. minor callus cultures was also tested. Seven media formulations were tested: (1) water agar, (2) water agar with 100 μM adenine sulfate, (3) water agar with 10 μM BA, (4) water agar with 10 μM BA and 1 μM IBA, (5) half-strength SH, (6) half-strength SH with 10 μM BA, and (7) half-strength SH with 10 μM BA and 1 μM IBA. […] Callus was incubated on the seven different media for 8 weeks, with continual observation for the development of fronds."}, "Lemna gibba G3 [2]": {"tested_on": "Lemna gibba G3", "test": "GUS expression in fronds after co-cultivation with Agrobacterium tumefaciens AT656 (histochemical staining)", "assay_type": "cell-based", "experimental": "Duckweed fronds were grown on liquid Schenk and Hildebrandt medium containing 1% sucrose with and without 10 μM indoleacetic acid (IAA), a concentration sufficient to increase proliferation rate. Fronds were grown in 25 ml aliquots of medium in 125 ml flasks, at 23° C. under a 16 hr light/8 hr dark photoperiod with light intensity of approximately 40 μmol/m^2·sec. For co-cultivation, 500 ml of Schenk and Hildebrandt medium containing 1% sucrose, 0.8% agar, 20 mg/L acetosyringone, and with and without 10 μM indoleacetic acid was prepared, pH adjusted to 5.6, autoclaved at 121° C. for 30 minutes, and cooled. Filter-sterilized solutions of acetosyringone, and acetosyringone and indoleacetic acid were added to the cooled medium, to the final, appropriate concentrations. Twenty, 100 mm×15 mm petri dishes were poured from the cooled medium.\nA randomized block, experimental design with 2 bacterial strain treatments×2 frond growth media, with 5 replications, with one petri dish per replication, and 20 fronds per petri dish was used. For inoculation, bacteria of each strain were separately resuspended as described in Example 21. For inoculation, individual fronds were separated from clumps, each turned abaxial side up and wounded with a sterile scalpel in the meristematic regions, then transferred to bacterial suspensions of either AT656 or EHA101pJR1, and incubated for 10–15 minutes. For co-cultivation, fronds were transferred to solid Schenk and Hildebrandt medium with 1% sucrose, 0.8% agar and 100 μM acetosyringone with and without 10 μM indoleacetic acid as described above, abaxial side down.\nThe fronds were co-cultivated for 4 days at 23° C. under a 16 hr light/8 hr dark photoperiod with light intensity of approximately 40 μmol/m^2·sec. The fronds from two plates from each of the four treatments were stained for GUS expression.\nLemna gibba G3 fronds were grown for two weeks on liquid. Schenk and Hildebrandt medium containing 1% sucrose and with or without 10 μM indoleacetic acid in 25 ml aliquots in 125 ml flasks, at 23° C. under a 16 hr light/8 hr dark photoperiod with light intensity of approximately 40 μmol/m^2·sec prior to experimentation. For co-cultivation, 900 ml of Schenk and Hildebrandt medium containing 1% sucrose, 0.8% agar, with and without 10 μM indoleacetic acid, and 20 mg/L acetosyringone was prepared, the pH was adjusted to 5.6, the medium autoclaved at 121° C. for 30 minutes, and cooled. Filter-sterilized solutions of acetosyringone and indoleacetic acid were added to the appropriate, final medium concentrations. Thirty-six, 100 mm×15 mm petri dishes were poured from the cooled medium. Three bacterial media: 1) AB minimal containing 1.6% agar (AB), Difco potato dextrose medium with 1.6% agar (PDA), and mannitol glutamine (Roberts and Kerr, Physiol. […]"}, "[3]": {"tested_on": "L. minor strains 8744 and 8627", "test": "Callus induction from Lemna minor fronds, auxin and cytokinin type and concentration", "assay_type": "cell-based", "details": "MS medium, 6 weeks", "experimental": "In the auxin type and concentration experiment, four auxins: 2,4-D, NAA, IBA and dicamba were tested, each at four concentrations: 2, 5, 10 and 20 μM, for their ability to induce callus formation from L. minor strains 8744 and 8627. The basal medium used was MS and media and experimental protocol was basically that followed in Example 10. Fronds used in this experiment were grown for 2 weeks prior to plating on callus induction medium under 3 different culture conditions: 1) SH medium without plant growth regulators, 2) F medium with 24 μM 2,4-D and 2 μM 2-iP, and 3) SH medium with 24 μM 2,4-D and 2 μM 2-iP. Fronds were separated, the roots cut off and then plated on induction medium. The fronds were incubated under conditions given in Example 8 for 6 weeks at which time cultures were evaluated for the presence or absence of callus induction, the degree to which the callus proliferated, and the basic morphology of the callus present.\nIn the cytokinin type and concentration experiment, four cytokinins: BA, kinetin, 2-iP, and thidiazuron were tested, each at five concentrations: 0.05, 0.1, 0.5, 1 and 5 μM, for their ability to induce callus formation from L. minor strains 8744 and 8627. The basal medium used was MS and the media and experimental protocol were basically as described in Example 11. Fronds used in this experiment were grown for 2 weeks prior to plating on callus induction medium under 3 different culture conditions: 1) SH medium without plant growth regulators, 2) F medium with 24 μM 2,4-D and 2 μM 2-iP, and 3) SH medium with 24 μM 2,4-D and 2 μM 2-iP. Fronds were separated, the roots cut off and then plated on induction medium. The fronds were incubated under conditions given in Example 8 for 6 weeks at which time cultures were evaluated for the presence or absence of callus induction, the degree to which the callus proliferated, and the basic morphology of the callus."}, "Lemna gibba G3 [4]": {"tested_on": "Lemna gibba G3", "test": "Callus induction from Lemna gibba G3 fronds on solid medium with plant growth regulators", "assay_type": "cell-based", "experimental": "Duckweed fronds were grown in liquid Hoagland's medium (Hoagland and Snyder, Proc. Amer. Soc. Hort. Sci. 30, 288 (1933)) containing 3% sucrose for two weeks at 23° C. under a 16 hr light/8 hr dark photoperiod with light intensity of approximately 40 μmol/m^2·sec prior to experimentation. For callus induction, eighteen, 100 ml portions of Murashige and Skoog basal medium (Murashige and Skoog, Physiol. Plant. 15, 473 (1962)) containing 3% sucrose, 0.15% Gelrite and 0.4% Difco Bacto-agar were prepared with 2,4-D concentrations of 10, 20 and 50 μM and BA concentrations of 0, 0.01, 0.1, 1.0, 2.0, and 10.0 μM. All media were pH adjusted to 5.8, autoclaved at 121° C. for 20 minutes, cooled, and each 100 ml was poured into 4, 100 mm×15 mm petri dishes.\n(§1) A three 2,4-D concentrations×six BA concentrations, full-factorial experimental design (18 treatments in total) with four replications, with one petri dish per replication and 5 fronds per petri dish was used. For callus induction, 5 individual duckweed fronds were placed abaxial side down on each plate of medium. The 72 plates were incubated at 23° C., for 27 days under a 16 hr light/8 hr dark photoperiod with light intensity of approximately 40 μmol/m^2·sec. After 27 days the duckweed tissue was transferred to fresh media of the same type and incubation was continued another 35 days under the same temperature and light culturing conditions.\nDuckweed fronds were grown in liquid Hoagland's medium containing 3% sucrose for two weeks at 23° C. under a 16 hr light/8 hr dark photoperiod with light intensity of approximately 40 μmol/m^2·sec. prior to experimentation. For callus induction, forty 100 ml portions of Murashige and Skoog medium with 3% sucrose, 0.15% Gelrite, and 0.4% Difco Bacto-agar were prepared with dicamba concentrations of 10, 20, 30, 40, 50, 60, 80, 100 μM and BA concentrations of 0.01, 0.05, 0.1, 0.5, and 1.0 μM. All media were pH adjusted to 5.8, autoclaved at 121° C. for 20 minutes, cooled, and each 100 ml was poured into 4, 100 mm×15 mm petri dishes.\nas §1, with “An eight dicamba concentrations×five BA” for “A three 2,4-D concentrations×six BA”, “design (40” for “design (18”, “The” for “The 72”, “After 28” for “After 27”, “another 45” for “another 35”\nDuckweed fronds were grown in liquid Schenk and Hildebrandt medium containing 1% sucrose for two weeks at 23° C. under a 16 hr light/8 hr dark photoperiod with light intensity of approximately 40 μmol/m^2·sec prior to experimentation. For callus induction, three basal media were tested: Murashige and Skoog, Schenk and Hildebrandt, and N6. Benzyladenine was used as the cytokinin at a concentration of 1 μM. The auxin concentrations varied with auxin type. For the relatively strong auxins, 2,4-D and dicamba, concentrations were 0, 1, 5, 10 and 20 μM. For weak auxins, NAA and IBA, the concentrations were 0, 5, 10, 20 and 50 μM. For each medium dose-response experiment, 2 liters of basal medium were prepared with BA and the pH adjusted to 5.8. The volume was aliquoted as 20, 100 ml portions. To each of these portions, the appropriate amount of auxin was added and the medium was adjusted to 0.15% Gelrite, and 0.4% Difco Bacto-agar. The media were autoclaved for 30 minutes at 121° C., cooled and 4, 100 mm×15 mm petri dishes were poured from each 100 ml portion.\nA 3 media×4 auxin×5 concentration combinations, 60 treatment, randomized dose-response experimental design was used. The design was replicated two times, with one petri dish per replication and 5 fronds per petri dish."}, "[5]": {"details": "half-strength SH with 10 μM BA only"}}, "data": [{"compound": "O=C(O)CCCc1c[nH]c2ccccc12", "note": "[IBA, indolebutyric acid]", "values": [{"measurement": "effect on the timing or ability of callus to regenerate fronds", "setting": "[1]; 1 μM IBA added to medium with 10 μM BA", "value": "had no effect"}]}, {"compound": "O=C(O)Cc1c[nH]c2ccccc12", "note": "[IAA, indoleacetic acid]", "values": [{"measurement": "effect on frequency of GUS expression after co-cultivation", "setting": "Lemna gibba G3 [2]; fronds grown on 10 μM indoleacetic acid prior to inoculation, 4 days co-cultivation", "value": "increased the frequency of GUS expression"}, {"measurement": "frequency of GUS expression in meristematic tissue", "setting": "Lemna gibba G3 [2]; fronds grown on SH medium with indoleacetic acid, averaged over PDA and MGL bacterial media", "value": "approximately 17%"}, {"measurement": "co-cultivated fronds showing GUS expression", "setting": "Lemna gibba G3 [2]; medium containing 10 μM IAA, 4 days co-cultivation (20% without IAA)", "value": 48, "unit": "%"}]}, {"compound": "c1ccc(CNc2ncnc3nc[nH]c23)cc1", "note": "[BA, benzyladenine]", "values": [{"measurement": "callus induction", "setting": "[3]; inducing auxin at 2, 5, 10, 20 μM, strains 8744 and 8627", "value": "not observed"}, {"measurement": "callus growth compared with half-strength SH without plant growth regulators", "setting": "[1]; [5]", "value": "callus growth was faster"}, {"measurement": "time to frond regeneration compared with half-strength SH", "setting": "[1]; [5]", "value": "regeneration took longer"}]}, {"compound": "O=C(Nc1ccccc1)Nc1cnns1", "note": "[TDZ, thidiazuron]", "values": [{"measurement": "frequency of callus induction", "setting": "Lemna gibba G3 [4]; cytokinin 0-5 μM with 20 μM 2,4-D, MS medium, five weeks", "value": "greatest frequency of callus induction"}]}, {"compound": "O=C(O)Cc1cccc2ccccc12", "note": "[NAA, naphthaleneacetic acid]", "values": [{"measurement": "concentration giving the greatest callus induction", "setting": "Lemna gibba G3 [4]; MS medium, 1 μM BA, five weeks", "value": 10, "unit": "µM"}]}, {"compound": "OC[C@@H](O)[C@@H](O)[C@H](O)[C@H](O)CO", "note": "[mannitol]", "values": [{"measurement": "concentration in bacterial resuspension solution giving the highest frequencies of GUS expression", "setting": "Lemna gibba G3 [2]; 0, 0.2, 0.4, 0.6, 0.8 M tested, regardless of media, 4 days co-cultivation in the dark", "value": 0.6, "unit": "M"}]}, {"compound": "COc1c(Cl)ccc(Cl)c1C(=O)O", "note": "[dicamba]", "values": [{"measurement": "concentration at which callus induction was observed", "setting": "[3]; strain 8744, auxin experiment", "value": 20, "unit": "µM"}, {"measurement": "compact Type I callus induction on MS medium", "setting": "Lemna gibba G3 [4]; auxin with 1 μM BA, five weeks", "value": "some degree of callus induction"}, {"measurement": "compact Type I callus induction on N6 medium", "setting": "Lemna gibba G3 [4]; auxin with 1 μM BA, five weeks", "value": "produced callus"}, {"measurement": "callus proliferation", "setting": "Lemna gibba G3 [4]; dicamba 10-100 μM with BA 0.01-1.0 μM, Murashige and Skoog medium, 73 days", "value": "callus proliferation was poor"}, {"measurement": "concentration above which callus proliferation did not occur", "setting": "Lemna gibba G3 [4]; dicamba with BA 0.01-1.0 μM, Murashige and Skoog medium, 73 days", "value": "above 30 μM"}]}]}
